In brackets after ≈: the same amount, converted by molar mass. Read-outs that look alike come from different tables or passages of the source.
What was measured:
E. coli ATCC 25922 = experiment: MIC assay, CLSI broth microdilution, E. coli ATCC 25922 (AECO001); assay type: cell-based; conditions: for MIC: Escherichia coli, read-out: MIC AECO001
Procedure: (§1) Minimum inhibitory concentrations (MIC) were determined by reference Clinical and Laboratory Standards Institute (CLSI) broth microdilution methods per M7-A7 [2006]. Quality control ranges utilizing E. coli ATCC 25922, P. aeruginosa ATCC 27853 and S. aureus ATCC 29213, and interpretive criteria for comparator agents were as published in CLSI M100-S17 [2007]. Briefly, serial two-fold dilutions of the test compounds were prepared at 2× concentration in Mueller Hinton Broth. The compound dilutions were mixed in 96-well assay plates in a 1:1 ratio with bacterial inoculum. The inoculum was prepared by suspension of a colony from an agar plate that was prepared the previous day. Bacteria were suspended in sterile saline and added to each assay plate to obtain a final concentration of 5×10^5 CFU/mL. The plates were incubated at 35° C. for 20 hours in ambient air.
These MIC assays were conducted following the same protocol as set forth in Example 110. As shown, substituted sisomicin derivatives with groups other than methyl at the 6′-position have improved activity against strains expressing the AAC6′-modifying enzymes.

P. aeruginosa ATCC 27853 = experiment: MIC assay, CLSI broth microdilution, P. aeruginosa ATCC 27853 (APAE001); assay type: cell-based; conditions: Pseudomonas aeruginosa, read-out: MIC APAE001
Procedure: as §1

Structure (SMILES)	MIC (E. coli ATCC 25922; ATCC25922, 20 h) [µg/mL]	MIC (P. aeruginosa ATCC 27853; ATCC27853, 20 h) [µg/mL]	MIC (E. coli ATCC 25922; AECO001 is ATCC25922, 35° C., 20 hours) [µg/mL]	MIC AECO001 (E. coli ATCC 25922; Table 3, E. coli ATCC25922) [µg/mL]	MIC (P. aeruginosa ATCC 27853; APAE001 is ATCC27853, 35° C., 20 hours) [µg/mL]
CN[C@@H]1[C@@H](O)[C@@H](O[C@@H]2[C@@H](O)[C@H](O[C@H]3OC(CN)=CC[C@H]3NC(=O)CN)[C@@H](N)C[C@H]2NC(=O)[C@@H](O)CCN)OC[C@]1(C)O [Example 87, 2′-(2-Amino-acetyl)-1-(4-amino-2(S)-hydroxy-butyryl)-sisomicin]	1 to 16 (≈ 1.65 to 26.4 µM)	1 to 16 (≈ 1.65 to 26.4 µM)	–	–	–
CN[C@@H]1[C@@H](O)[C@@H](O[C@@H]2[C@@H](O)[C@H](O[C@H]3OC(CNCCNC4CNC4)=CC[C@H]3N)[C@@H](N)C[C@H]2NC(=O)[C@@H](O)CN)OC[C@]1(C)O [Example 81, 6′-(N-(Azetidin-3-yl)-2-amino-ethyl)-1-(3-amino-2(S)-hydroxy-propionyl)-sisomicin]	1 to 16 (≈ 1.58 to 25.3 µM)	> 16	–	–	–
CNCC(=O)N[C@@H]1CC=C(CN)O[C@@H]1O[C@H]1[C@H](O)[C@@H](O[C@H]2OC[C@](C)(O)[C@H](NC)[C@H]2O)[C@H](NC(=O)[C@@H](O)CCN)C[C@@H]1N [Example 86, 2′-(N-Methyl-amino-acetyl)-1-(4-amino-2(S)-hydroxy-butyryl)-sisomicin]	1 to 16 (≈ 1.61 to 25.8 µM)	1 to 16 (≈ 1.61 to 25.8 µM)	–	–	–
CN[C@@H]1[C@@H](O)[C@@H](O[C@@H]2[C@@H](O)[C@H](O[C@H]3OC(CNC(=N)N)=CC[C@H]3NC(=N)N)[C@@H](N)C[C@H]2N)OC[C@]1(C)O [Example 105, 6′,2′-bis-Guanidinium-sisomicin]	> 16	> 16	–	–	–
CN[C@@H]1[C@@H](O)[C@@H](O[C@@H]2[C@@H](O)[C@H](O[C@H]3OC(CNC[C@H]4C[C@H](N)C4)=CC[C@H]3N)[C@@H](N)C[C@H]2NC(=O)[C@@H](O)CN)OC[C@]1(C)O [Example 59, 6′-(Methyl-trans-3-amino-cyclobutyl)-1-(3-amino-2(S)-hydroxy-propionyl)-sisomicin]	< 1	1 to 16 (≈ 1.62 to 25.9 µM)	–	–	–
CN[C@@H]1[C@@H](O)[C@@H](O[C@@H]2[C@@H](O)[C@H](O[C@H]3OC(CNCC4CCNCC4)=CC[C@H]3N)[C@@H](N)C[C@H]2NC(=O)[C@H](O)CCN)OC[C@]1(C)O [Example 4, 6′-(Methyl-piperidin-4-yl)-1-(4-amino-2(R)-hydroxy-butyryl)-sisomicin]	1 to 16 (≈ 1.55 to 24.8 µM)	1 to 16 (≈ 1.55 to 24.8 µM)	–	–	–
CN[C@@H]1[C@@H](O)[C@@H](O[C@@H]2[C@@H](O)[C@H](O[C@H]3OC(CNCC(N)CO)=CC[C@H]3N)[C@@H](N)C[C@H]2NC(=O)[C@@H](O)CCN)OC[C@]1(C)O (stereo partly drawn) [Example 30, 6′-(2-Amino-propanol)-1-(4-amino-2(S)-hydroxy-butyryl)-sisomicin]	< 1	1 to 16 (≈ 1.61 to 25.7 µM)	–	–	–
CN[C@@H]1[C@@H](O)[C@@H](O[C@@H]2[C@@H](O)[C@H](O[C@H]3OC(CNC[C@H]4C[C@H](N)C4)=CC[C@H]3N)[C@@H](N)C[C@H]2NC(=O)C2(O)CNC2)OC[C@]1(C)O [Example 63]	< 1	1 to 16 (≈ 1.59 to 25.4 µM)	–	–	–
CN[C@@H]1[C@@H](O)[C@@H](O[C@@H]2[C@@H](O)[C@H](O[C@H]3OC(CNCC4(O)CC(N)C4)=CC[C@H]3N)[C@@H](N)C[C@H]2NC(=O)C(O)C2CNC2)OC[C@]1(C)O (stereo partly drawn) [Example 83, 6′-(Methyl-3-amino-1-hydroxy-cyclobutyl)-1-(2-(azetidin-3-yl)-2-hydroxy-acetyl)-sisomicin]	1 to 16 (≈ 1.52 to 24.3 µM)	> 16	–	–	–
CN[C@@H]1[C@@H](O)[C@@H](O[C@@H]2[C@@H](O)[C@H](O[C@H]3OC(CNCC(O)CO)=CC[C@H]3N)[C@@H](N)C[C@H]2NC(=O)CO)OC[C@]1(C)O (stereo partly drawn) [Example 23, 6′-(2-Hydroxy-propanol)-1-(2-hydroxy-acetyl)-sisomicin]	> 16	> 16	–	–	–
CN[C@@H]1[C@@H](O)[C@@H](O[C@@H]2[C@@H](O)[C@H](O[C@H]3OC(CNCCCC(O)CN)=CC[C@H]3N)[C@@H](N)C[C@H]2NC(=O)[C@@H](O)CN)OC[C@]1(C)O (stereo partly drawn) [Example 80, 6′-(4-Hydroxy-5-amino-pentyl)-1-(3-amino-2(S)-hydroxy-propionyl)-sisomicin]	< 1	< 1	–	–	–
CNCC1=CC[C@@H](N)[C@@H](O[C@H]2[C@H](O)[C@@H](O[C@H]3OC[C@](C)(O)[C@H](NC)[C@H]3O)[C@H](NC(=O)C3(O)CNC3)C[C@@H]2N)O1 [Example 61]	–	–	< 1	1 (≈ 1.78 µM)	1 to 16 (≈ 1.78 to 28.5 µM)
CN[C@@H]1[C@@H](O)[C@@H](O[C@@H]2[C@@H](O)[C@H](O[C@H]3OC(CNCCCCCN)=CC[C@H]3N)[C@@H](N)C[C@H]2NC(=O)[C@@H](O)CCN)OC[C@]1(C)O [Example 44, 6′-(5-Amino-pentyl)-1-(4-amino-2(S)-hydroxy-butyryl)-sisomicin]	< 1	1 to 16 (≈ 1.58 to 25.2 µM)	–	–	–

— US11117915B2, “Antibacterial aminoglycoside analogs” (Cipla USA, Inc., priority 2007, dated 2021)
